The record followed here is a melting point compilation (Tetko et al.).

Some results are limits rather than exact numbers.

For `COc1c(Cl)nc(-c2ccc(Cl)c(OC)c2F)nc1Cl`, the melting point – broadly, the temperature of the solid-liquid transition – lay within 137 to 138 °C. `FC(F)(F)C(F)(F)C(F)(F)C(F)(F)C(F)(F)C(F)(F)CCc1ccc(P(c2ccccc2)c2ccc(CCC(F)(F)C(F)(F)C(F)(F)C(F)(F)C(F)(F)C(F)(F)F)cc2)cc1`: the melting point lay in the range of 42.1 to 43.1 °C. `C=CCN(CC=C)c1nc(OC)nc(N(CCCCCCN(c2nc(OC)nc(N(CC=C)CC=C)n2)C2CC(C)(C)NC(C)(C)C2)C2CC(C)(C)NC(C)(C)C2)n1` had a melting point of 113 to 115 °C. The result for `CCCCC(CC)CN1C(=O)C(=Cc2cc3c(s2)c2sc(-c4ccc(N(c5ccccc5)c5ccccc5)cc4)cc2n3CC(CC)CCCC)C(C)=C(C#N)C1=O` (stereo not given) reads 137 to 140 °C; that for `CCCCCCCCCCCCCC=CC(OC(=O)c1ccccc1)C(COC1OC(CO)C(OCCC(C(=O)OC(C)(C)C)C(=O)OC(C)(C)C)C(O)C1O)NC(=O)CCCCCCCCCCCCCCC` (stereo not given), 48 to 50 °C; that for `CCCCCCCCCCCCNC(=O)c1cccc(Sc2c(Nc3cc(C(=O)NCCCCCCCCCCCC)ccc3Cl)nn(-c3c(Cl)cc(Cl)cc3Cl)c2OC(=O)CCC)c1`, 111 to 113 °C.

`COc1cc(OC)c(/C=C/C(c2ccc(OC)c(OC)c2OC)S(=O)(=O)C(/C=C/c2c(OC)cc(OC)cc2OC)c2ccc(OC)c(OC)c2OC)c(OC)c1` (stereo not given) showed a melting point of 94 to 96 °C. Compound `CC(C)=CCCC(C)=CCCC(C)=CCCC(C)=CCCC(C)=CCCC(C)=CCCC(C)=CCCC(C)=CCCC(C)=CCCC(C)=CCNCC12CCCN1CCC2` came in with a melting point of 59 to 61 °C. In turn, `Cc1cc(F)c(-n2nc(C(F)(F)F)nc2NC(=O)C(F)(F)F)cc1C(SC(c1cc(-n2nc(C(F)(F)F)nc2NC(=O)C(F)(F)F)c(F)cc1C)C(F)(F)F)C(F)(F)F` (stereo not given) displayed a melting point of 122 to 125 °C. The same measure for `CC(C)COc1c(-c2ccc(S(N)(=O)=O)c(F)c2)cnn(-c2cccc(Cl)c2)c1=O`: 157 to 159 °C.

As for `COc1cccc(Sc2cc3c(cc2Sc2cccc(OC)c2)C(=O)c2c(c(O)c4cc(Sc5cccc(OC)c5)c(Sc5cccc(OC)c5)cc4c2O)C3=O)c1`, the melting point is 287 to 292 °C. `CC(C)C[C@H](NC(=O)[C@H](C)NC(=O)[C@H](C)NC(=O)OC(C)(C)C)C(=O)NCCNc1ccc(NCCNC(=O)[C@H](CC(C)C)NC(=O)[C@H](C)NC(=O)[C@H](C)NC(=O)OC(C)(C)C)c2c1C(=O)c1c(O)ccc(O)c1C2=O` yielded a melting point greater than 220 °C. On to `CCO/N=C(\C)[C@H]1CC[C@H]2[C@@H]3CCC4=CC(=O)CC[C@]4(C)[C@H]3CC[C@]12C`, for which the melting point was 127 to 129 °C.

Take `CC1(C)CC(Oc2nc(N(C3CC(C)(C)N(O)C(C)(C)C3)C3CC(C)(C)N(O)C(C)(C)C3)nc(N(C3CC(C)(C)N(O)C(C)(C)C3)C3CC(C)(C)N(O)C(C)(C)C3)n2)CC(C)(C)N1O`: the melting point fell in the range of 233 to 236 °C. `Cc1cc(Oc2ccc3nc(COc4ccc(CC(Nc5ccccc5C(=O)c5ccccc5)C(=O)O)cc4)n(C)c3c2)cc(C)c1NC(=O)Nc1ccc(C(F)(F)F)cc1` (stereo not given) registered a melting point of 165 to 172 °C. Regarding `COc1cc2c(cc1-c1cc3c4cc(-c5ccccc5)ccc4n(CCC(C)CCCC(C)C)c3cc1OC)c1cc(-c3ccccc3)ccc1n2CCC(C)CCCC(C)C` (stereo not given), the melting point came out at 155 °C. The result for `O=C(Oc1ccc2c(OC(=O)c3ccc(OCc4ccccc4)c(Cl)c3)c3ccccc3cc2c1OC(=O)c1ccc(OCc2ccccc2)c(Cl)c1)c1ccc(OCc2ccccc2)c(Cl)c1` reads 106 to 109 °C. The same measure for `O=C(O)CCC(CC=Cc1ccc(Cl)cc1)(C(=O)C=Cc1ccc(Cl)cc1)c1ccccc1` (stereo not given): 178 to 180 °C; for `CC1CNc2c(cccc2S(=O)(=O)NC(CCCc2cn(C(c3ccccc3)(c3ccccc3)c3ccccc3)cn2)C(=O)N2CCC(C)CC2C(=O)NOCc2ccccc2)C1` (stereo not given): 90 to 100 °C. The same measure for `CC(=O)c1ccc(-n2c(-c3sc(Nc4ccc(Cl)cc4)nc3C)nc3ccccc3c2=O)cc1`: 209 to 210 °C.
